# Measured values taken from PMC6274180, “Investigating Glycol-Split-Heparin-Derived Inhibitors of Heparanase: A Study of Synthetic Trisaccharides” (Molecules, 2016).
# pIC50: −log10 of the molar value.
# Target: T1, heparanase (Homo sapiens, UniProt Q9Y251)
# T1 construct: gene HPSE
# T1 sequence (Q9Y251 36-109): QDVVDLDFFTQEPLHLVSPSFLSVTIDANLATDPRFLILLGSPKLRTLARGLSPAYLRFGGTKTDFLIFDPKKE
# T1 sequence (Q9Y251 158-543): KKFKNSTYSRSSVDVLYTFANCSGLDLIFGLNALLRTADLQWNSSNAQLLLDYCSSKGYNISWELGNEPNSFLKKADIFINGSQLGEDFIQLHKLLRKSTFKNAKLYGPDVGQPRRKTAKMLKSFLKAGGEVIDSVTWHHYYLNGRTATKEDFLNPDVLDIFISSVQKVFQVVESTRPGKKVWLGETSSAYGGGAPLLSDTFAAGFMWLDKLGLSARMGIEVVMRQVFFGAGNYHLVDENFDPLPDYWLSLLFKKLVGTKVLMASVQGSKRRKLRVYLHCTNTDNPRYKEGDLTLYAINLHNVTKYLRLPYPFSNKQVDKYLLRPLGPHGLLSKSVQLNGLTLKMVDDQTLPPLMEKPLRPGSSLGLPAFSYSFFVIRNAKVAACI
# Assay: in vitro colorimetric (WST-1) heparanase inhibition assay with fondaparinux as substrate
# Type: biochemical
row,SMILES,pIC50
1,CO[C@H]1[C@H](O)[C@@H](NS(=O)(=O)O)[C@@H](O[C@H]2[C@H](O)[C@@H](O)[C@H](O[C@H]3[C@H](O)[C@@H](NS(=O)(=O)O)[C@@H]4OC[C@H]3O4)O[C@@H]2C(=O)O)O[C@@H]1COS(=O)(=O)O [compound 1],4.40
2,"CO[C@H]1[C@H](O)[C@@H](NS(=O)(=O)O)[C@@H](O[C@@H](CO)[C@H](O[C@H](CO)O[C@H]2[C@H](O)[C@@H](NS(=O)(=O)O)[C@@H]3OC[C@H]2O3)C(=O)O)O[C@@H]1COS(=O)(=O)O [compound 2, sodium(2S,3S)-4-hydroxy-2-((R)-2-hydroxy-1-(((1R,2S,3R,4R,5R)-3-hydroxy-4-(sulfonatoamino)-6,8-dioxabicyclo[3.2.1]octan-2-yl)oxy)ethoxy)-3-(((2R,3R,4R,5S,6R)-4-hydroxy-5-methoxy-3-(sulfonatoamino)-6-((sulfonatooxy)methyl)tetrahydro-2H-pyran-2-yl)oxy)butanoate]",5.58
